Source: patent US9206168B2, “(2-heteroarylamino) succinic acid derivatives” (Daiichi Sankyo Company, Limited, priority 2012, dated 2015)
Structures can show the parent of a compound that is named as a salt.

System: human liver cancer-derived cell line Hep3B
Assay: In vitro erythropoietin (EPO) induction activity in Hep3B cells (EPO ELISA of culture supernatant)
Type: cell-based
Settings: test compound 12.5 μM, 32 hours at 37° C., multiple of the EPO concentration in the control (0.5% DMSO)
Procedure: In vitro erythropoietin (EPO) induction activity of test compounds was evaluated using human liver cancer-derived cell line Hep3B (ATCC, Manassas, Va.). Hep3B cells were cultured overnight at 37° C. in Dulbecco's modified Eagle's medium (DMEM) in the presence of 10% fetal bovine serum (FBS) (24-well plate, 1.0×10^5 cells/well). After replacing with fresh DMEM (+10% FBS) containing a test compound dissolved in 0.5% dimethyl sulfoxide (DMSO) (prepared to a concentration of 12.5 μM) or a solvent control (0.5% DMSO), the cells were cultured for 32 hours at 37° C. After recovering the culture supernatant, EPO concentration in the culture supernatant was quantified using human EPO ELISA kits (StemCell Technologies).
The EPO concentration using a compound of each example as a test compound was expressed as a multiple of the EPO concentration in the control.

Structure (SMILES)	fold induction at 12.5 µM
O=C(O)CCC(=O)Nc1ncc(C(=O)NCc2ccc(F)c(-c3ccccc3)c2)c(O)n1 [Example 5, 4-({5-[(4-Fluoro-3-phenylphenyl)methylcarbamoyl]-4-hydroxypyrimidin-2-yl}amino)-4-oxobutanoic acid]	6.3
O=C(O)CCC(=O)Nc1ncc(C(=O)NCc2ccc(F)cc2F)c(O)n1 [Example 2, 4-({5-[(2,4-Difluorophenyl)methylcarbamoyl]-4-hydroxypyrimidin-2-yl}amino)-4-oxobutanoic acid]	7.9
COc1ccc(C(NC(=O)c2cnc(NC(=O)CCC(=O)O)nc2O)C2CCOCC2)cn1 (stereo not drawn) [Example 9, 4-[(4-Hydroxy-5-{[(6-methoxypyridin-3-yl)(tetrahydro-2H-pyran-4-yl)methyl]carbamoyl}pyrimidin-2-yl)amino]-4-oxobutanoic acid trifluoroacetate]	16
O=C(O)CCC(=O)Nc1ncc(C(=O)NCc2cccc(F)c2)c(O)n1 [Example 12, 4-({5-[(3-Fluorophenyl)methylcarbamoyl]-4-hydroxypyrimidin-2-yl}amino)-4-oxobutanoic acid]	7.2
Cc1cccc(CNC(=O)c2cnc(NC(=O)CCC(=O)O)nc2O)c1 [Example 14, 4-{[4-Hydroxy-5-(m-tolylmethylcarbamoyl)pyrimidin-2-yl]amino}-4-oxobutanoic acid]	3
O=C(O)CCC(=O)Nc1ncc(C(=O)NCc2cccc(-c3ccccc3)c2)c(O)n1 [Example 6, 4-({4-Hydroxy-5-[(3-phenylphenyl)methylcarbamoyl]pyrimidin-2-yl}amino)-4-oxobutanoic acid]	3.7
O=C(O)CCC(=O)Nc1ncc(C(=O)NCc2ccc(F)cc2Cl)c(O)n1 [Example 3, 4-({5-[(2-Chloro-4-fluorophenyl)methylcarbamoyl]-4-hydroxypyrimidin-2-yl}amino)-4-oxobutanoic acid]	9.5
O=C(O)CCC(=O)Nc1ncc(C(=O)NCc2cccc(C(F)(F)F)c2)c(O)n1 [Example 11, 4-[(4-Hydroxy-5-{[3-(trifluoromethyl)phenyl]methylcarbamoyl}pyrimidin-2-yl)amino]-4-oxobutanoic acid]	7.5
O=C(O)CCC(=O)Nc1ncc(C(=O)NCc2cccc(C3CCCC3)c2)c(O)n1 [Example 17, 4-({5-[(3-Cyclopentylphenyl)methylcarbamoyl]-4-hydroxypyrimidin-2-yl}amino)-4-oxobutanoic acid]	4.4
O=C(O)CCC(=O)Nc1ncc(C(=O)NCc2ccc(F)c(F)c2)c(O)n1 [Example 13, 4-({5-[(3,4-Difluorophenyl)methylcarbamoyl]-4-hydroxypyrimidin-2-yl}amino)-4-oxobutanoic acid]	13
O=C(O)CCC(=O)Nc1ncc(C(=O)NCc2ccc(Cl)cc2Cl)c(O)n1 [Example 1, 4-({5-[(2,4-Dichlorophenyl)methylcarbamoyl]-4-hydroxypyrimidin-2-yl}amino)-4-oxobutanoic acid]	3.6
COc1ccc(-c2ccc(C(C)(C)NC(=O)c3cnc(NC(=O)CCC(=O)O)nc3O)cn2)cc1 [Example 10, 4-{[4-Hydroxy-5-({1-[6-(4-methoxyphenyl)pyridin-3-yl]-1-methylethyl}carbamoyl)pyrimidin-2-yl]amino}-4-oxobutanoic acid trifluoroacetate]	10
